Values after ≈ are worked out from the molar mass of the structure shown. Counter-ions that a name gives are not always drawn. Like-named read-outs stand apart in the source and are kept apart here.

In one experiment the test system is E. coli 12140. The experiment in a line: standard in vivo mouse protection test, E. coli 12140. Particulars: s.c. The procedure:
(§1) C is 7β-(syn-2-hydroxyimino-2-phenylacetamido)-3-(1-sulfomethyltetrazol-5-ylthiomethyl)-3-cephem-4-carboxylic acid disodium salt. […] 4200; 25 mg./kg. against E. coli 12140; Compound B 45 mg./kg. against Kleb. and 43, >50 against E. coli.

The subject of experiment [1] is Entero. aerogenes ATCC 13048. Briefly: MIC in vitro, Entero. aerogenes ATCC 13048 (G-). The experiment is classed as cell-based. The settings on record: Klebsiella aerogenes. An excerpt: (§2) Table 1 contains minimum inhibitory concentrations in μg./ml. of a number of representative compounds compared with standard agents.
A further experiment deals with Pseudo Aeruginosa HH 63. Briefly: MIC in vitro, Pseudo Aeruginosa HH 63 (G-). The experiment is classed as cell-based.
Source text: as §2

The test system of the next experiment is Kleb. pneumo. 4200. The experiment in a line: standard in vivo mouse protection test, Kleb. pneumo. 4200. The settings on record: sc. As for the experimental part: as §1
Another experiment relates to S. Aureus SK 23390. The experiment in a line: MIC in vitro, S. Aureus SK 23390 (G+). Format: cell-based. The settings on record: Staphylococcus aureus.
Source text: as §2

For a further experiment, the system named is Salmonella ATCC 12176. The experiment in a line: MIC in vitro, Salmonella ATCC 12176 (G-). Particulars: for MIC: Salmonella, ATCC12176, Salmonella ATCC 12176, G-. The experiment is classed as cell-based.
Source text: as §2

In the next experiment the test system is Kleb. pneumoniae SK 1200. The experiment in a line: MIC in vitro, Kleb. pneumoniae SK 1200 (G-). The experiment is classed as cell-based. The settings on record: Klebsiella pneumoniae, SK1200.
Source text: as §2

The next experiment deals with E. coli HH 33779. Briefly: MIC in vitro, E. coli HH 33779 (G-). The experiment is classed as cell-based. Particulars: Escherichia coli, HH33779.
Source text: as §2

The test system of the next experiment is Proteus morgani 179. The experiment in a line: MIC in vitro, Proteus morgani 179 (G-). Format: cell-based.
Source text: as §2

Another experiment has as its system Kleb. pneumoniae SK 4200. The experiment in a line: MIC in vitro, Kleb. pneumoniae SK 4200 (G-). The settings on record: Klebsiella pneumoniae, SK4200. Format: cell-based.
Source text: as §2

For experiment [2], the system named is Serratia Marcescens ATCC 13880. Briefly: MIC in vitro, Serratia Marcescens ATCC 13880 (G-). Format: cell-based.
Source text: as §2

The next experiment has as its system S. villaluz SK 70390. Briefly: MIC in vitro, S. villaluz SK 70390 (G+). Format: cell-based. Particulars: read-out: MIC in vitro.
Source text: as §2

For a further experiment, the system named is Entero. cloacae HH 31254. Briefly: MIC in vitro, Entero. cloacae HH 31254 (G-). The settings on record: Enterobacter cloacae, HH31254. The experiment is classed as cell-based.
Source text: as §2

The test system of a further experiment is E. coli SK 12140. Briefly: MIC in vitro, E. coli SK 12140 (G-). The experiment is classed as cell-based. The settings on record: Escherichia coli, SK12140.
Source text: as §2

The test system of the next experiment is Strep. Faecalis HH 34358. Briefly: MIC in vitro, Strep. Faecalis HH 34358 (G+). Particulars: for MIC: Enterococcus faecalis. Format: cell-based.
Source text: as §2

For a further experiment, the system named is S. Aureus HH 127. Briefly: MIC in vitro, S. Aureus HH 127 (G+). Particulars: Staphylococcus aureus. Format: cell-based.
Source text: as §2

For the next experiment, the system named is P. Mirabils PM 444. The experiment in a line: MIC in vitro, P. Mirabils PM 444 (G-). The experiment is classed as cell-based.
Source text: as §2

The mark [3] stands for this setting: Escherichia coli, 12140, sc, read-out: ED50.
[4] abbreviates: ATCC13048, Entero. aerogenes ATCC 13048, G-, read-out: MIC in vitro.
Setting [5] is: ATCC13880, Serratia Marcescens ATCC 13880, G-, read-out: MIC in vitro.
[6] abbreviates: P. Mirabils PM 444, G-, read-out: MIC in vitro.

The term ED50 denotes the dose that gives a 50% effect, or the effect in half of the subjects. One may read the MIC as the lowest concentration that inhibits growth of the organism. Take `O=C(O)C1=C(CSc2nnnn2CS(=O)(=O)O)CS[C@@H]2[C@H](NC(=O)/C(=N\O)c3ccccc3)C(=O)N12` [Compound C, 7β-(syn-2-hydroxyimino-2-phenylacetamido)-3-(1-sulfomethyltetrazol-5-ylthiomethyl)-3-cephem-4-carboxylic acid disodium salt]: the ED50 in the experiment with E. coli 12140 (setting [3]) came to 25 mg/kg; in the experiment on Kleb. pneumo. 4200, 4.4 mg/kg. Also, the MIC in [1] (setting [4]) was 6.3 µg/mL; in the experiment on Pseudo Aeruginosa HH 63, more than 200 µg/mL; in the experiment with S. Aureus SK 23390 it was 0.8 µg/mL; in the experiment with Salmonella ATCC 12176, 0.8 µg/mL; against Kleb. pneumoniae SK 1200, 0.8 µg/mL; in the experiment with E. coli HH 33779, 3.1 µg/mL. Moreover, the MIC in the experiment on Proteus morgani 179 is 25 µg/mL; in the experiment on Kleb. pneumoniae SK 4200, 1.6 µg/mL; in experiment [2] (setting [5]), 12.5 µg/mL; with S. villaluz SK 70390 (S. villaluz SK 70390, G+), 100 µg/mL; with Entero. cloacae HH 31254 it was 1.6 µg/mL; in the experiment on E. coli SK 12140, 1.6 µg/mL. In addition, the figures for the MIC against Strep. Faecalis HH 34358 and in the experiment with S. Aureus HH 127 were 6.3 µg/mL and 0.8 µg/mL, respectively.

On to `Cc1nnc(SCC2=C(C(=O)O)N3C(=O)[C@@H](NC(=O)Cn4cnnn4)[C@H]3SC2)s1` [Cefazolin, reference compound], for which the MIC in experiment [1] (setting [4]) is 1.6 µg/mL (≈ 3.52 µM); against Pseudo Aeruginosa HH 63, more than 200 µg/mL; with S. Aureus SK 23390 it was 0.2 µg/mL (≈ 0.44 µM); with Salmonella ATCC 12176 it was 0.8 µg/mL (≈ 1.76 µM); in the experiment with Kleb. pneumoniae SK 1200, 0.4 µg/mL (≈ 0.88 µM); with E. coli HH 33779, 1.6 µg/mL (≈ 3.52 µM). The MIC against Proteus morgani 179 was 200 µg/mL (≈ 440 µM); in the experiment on Kleb. pneumoniae SK 4200, 1.6 µg/mL (≈ 3.52 µM); in experiment [2] (setting [5]) it was more than 200 µg/mL; with Entero. cloacae HH 31254, 0.8 µg/mL (≈ 1.76 µM); in the experiment with E. coli SK 12140, 0.8 µg/mL (≈ 1.76 µM); in the experiment with Strep. Faecalis HH 34358, 6.3 µg/mL (≈ 13.9 µM). Also, the MIC in the experiment on P. Mirabils PM 444 (setting [6]) stood at 3.1 µg/mL (≈ 6.82 µM); against S. Aureus HH 127, 0.4 µg/mL (≈ 0.88 µM).

With `CO[C@@]1(NC(=O)Cc2cccs2)C(=O)N2C(C(=O)O)=C(COC(N)=O)CS[C@@H]21` [Cefoxitin, reference compound], the MIC in experiment [1] (setting [4]) was 25 µg/mL (≈ 58.5 µM); against Pseudo Aeruginosa HH 63 it was more than 200 µg/mL; against S. Aureus SK 23390 it was 3.1 µg/mL (≈ 7.25 µM); with Salmonella ATCC 12176 it was 3.1 µg/mL (≈ 7.25 µM); against Kleb. pneumoniae SK 1200 it was 3.1 µg/mL (≈ 7.25 µM); against E. coli HH 33779 it was 12.5 µg/mL (≈ 29.2 µM). Also, the MIC against Proteus morgani 179 is 12.5 µg/mL (≈ 29.2 µM); against Kleb. pneumoniae SK 4200 it was 6.3 µg/mL (≈ 14.7 µM); in experiment [2] (setting [5]), 12.5 µg/mL (≈ 29.2 µM); with S. villaluz SK 70390 (S. villaluz SK 70390, G+), 100 µg/mL (≈ 234 µM); in the experiment with Entero. cloacae HH 31254, 6.3 µg/mL (≈ 14.7 µM); in the experiment on E. coli SK 12140 it was 6.3 µg/mL (≈ 14.7 µM). Also, the MIC was found to be 200 µg/mL (≈ 468 µM) in the experiment on Strep. Faecalis HH 34358, 6.3 µg/mL (≈ 14.7 µM) with P. Mirabils PM 444 (setting [6]) and 1.6 µg/mL (≈ 3.74 µM) against S. Aureus HH 127.

Turning to `CO/N=C(\C(=O)N[C@@H]1C(=O)N2C(C(=O)O)=C(CSc3nnnn3CS(=O)(=O)O)CS[C@H]12)c1ccccc1` [Compound B, 7β-(syn-2-methoxyimino-2-phenylacetamido)-3-(1-sulfomethyltetrazol-5-ylthiomethyl)-3-cephem-4-carboxylic acid disodium salt], the ED50 in the experiment with E. coli 12140 (setting [3]) was 43 mg/kg; in the experiment on E. coli 12140 (disodium salt), more than 50 mg/kg; in the experiment on Kleb. pneumo. 4200, 45 mg/kg. Moreover, the MIC is 12.5 µg/mL in experiment [1] (ATCC13048, read-out: MIC in vitro); 200 µg/mL in the experiment on Pseudo Aeruginosa HH 63; 1.6 µg/mL in the experiment with S. Aureus SK 23390; 1.6 µg/mL with Salmonella ATCC 12176; 3.1 µg/mL against Kleb. pneumoniae SK 1200; 6.3 µg/mL against E. coli HH 33779. Further, the MIC with Proteus morgani 179 is 6.3 µg/mL; with Kleb. pneumoniae SK 4200, 3.1 µg/mL; in [2] (setting [5]) it was 12.5 µg/mL; in the experiment with S. villaluz SK 70390 it was more than 200 µg/mL; against Entero. cloacae HH 31254, 3.1 µg/mL; with E. coli SK 12140 it was 6.3 µg/mL. The MIC in the experiment on Strep. Faecalis HH 34358 amounted to 25 µg/mL; in the experiment on S. Aureus HH 127, 1.6 µg/mL.

Turning to `CO/N=C(\C(=O)N[C@@H]1C(=O)N2C(C(=O)O)=C(COC(N)=O)CS[C@H]12)c1ccco1` [Cefuroxime, reference compound], the MIC in experiment [1] (setting [4]) is 6.3 µg/mL (≈ 14.8 µM); in the experiment with Pseudo Aeruginosa HH 63, more than 200 µg/mL; against S. Aureus SK 23390, 1.6 µg/mL (≈ 3.77 µM); against Salmonella ATCC 12176, 3.1 µg/mL (≈ 7.3 µM); with Kleb. pneumoniae SK 1200, 3.1 µg/mL (≈ 7.3 µM); in the experiment on E. coli HH 33779, 6.3 µg/mL (≈ 14.8 µM). Further, the MIC was 50 µg/mL (≈ 118 µM) in the experiment with Proteus morgani 179; 6.3 µg/mL (≈ 14.8 µM) in the experiment with Kleb. pneumoniae SK 4200; 12.5 µg/mL (≈ 29.5 µM) in experiment [2] (setting [5]); more than 200 µg/mL in the experiment with S. villaluz SK 70390 (S. villaluz SK 70390, G+); 3.1 µg/mL (≈ 7.3 µM) with Entero. cloacae HH 31254; 6.3 µg/mL (≈ 14.8 µM) in the experiment on E. coli SK 12140. The results for the MIC with Strep. Faecalis HH 34358, in the experiment on P. Mirabils PM 444 (setting [6]) and against S. Aureus HH 127 were 12.5 µg/mL (≈ 29.5 µM), 1.6 µg/mL (≈ 3.77 µM) and 0.8 µg/mL (≈ 1.89 µM), respectively.

Turning to `CO/N=C(\C(=O)N[C@@H]1C(=O)N2C(C(=O)O)=C(CSc3nnnn3CS(=O)(=O)O)CS[C@H]12)c1ccco1` [A, 7β-(syn-2-methoxyimino-2-α-furylacetamido)-3-(1-sulfomethyltetrazol-5-ylthiomethyl)-3-cephem-4-carboxylic acid disodium salt hydrate], the MIC in experiment [1] (setting [4]) turned out to be 3.1 µg/mL; against Pseudo Aeruginosa HH 63, 100 µg/mL; against S. Aureus SK 23390 it was 3.1 µg/mL; against Salmonella ATCC 12176 it was 0.4 µg/mL; against Kleb. pneumoniae SK 1200, 0.4 µg/mL; against E. coli HH 33779, 1.6 µg/mL. Besides, the MIC against Proteus morgani 179 was 1.6 µg/mL; against Kleb. pneumoniae SK 4200, 0.8 µg/mL; in experiment [2] (setting [5]), 3.1 µg/mL; in experiment [2] (Serratia marcescens, ATCC13880, read-out: MIC in vitro, Serratia Marcescens ATCC 13880, G-) it was 6.3 µg/mL; in the experiment with S. villaluz SK 70390 (S. villaluz SK 70390, G+), more than 200 µg/mL; in the experiment with Entero. cloacae HH 31254 it was 0.8 µg/mL. Further, the MIC was 0.8 µg/mL against E. coli SK 12140; 100 µg/mL against Strep. Faecalis HH 34358; 1.6 µg/mL with P. Mirabils PM 444 (setting [6]); 0.2 µg/mL with P. Mirabils PM 444 (read-out: MIC in vitro, P. Mirabils PM 444, G-); 3.1 µg/mL with S. Aureus HH 127. In addition, the MIC in vitro amounted to 0.8 µg/mL in the experiment on Salmonella ATCC 12176 (Salmonella ATCC 12176, G-, disodium salt hydrate) and 200 µg/mL in the experiment on Strep. Faecalis HH 34358 (disodium salt hydrate).

Values taken from patent US4066762A, “Derivatives of 7-(2-substituted-2-hydroxyiminoacetamido)-3-(1-substituted tetrazol-5-yl thiomethyl-3-cephem-4-carboxylic acid” (SmithKline Corporation, priority 1976, dated 1978).
